The test system of one series is Enterococcus faecium 569. Kind of series: MIC by broth microdilution. Type of series: cell-based. The settings on record: Enterococcus faecium 569. As for the experimental part: (§1) We have tested the antimicrobial activity in vitro of over 100 tris(indolyl)methane derivatives against 16 strains of Gram-positive, Gram-negative bacteria and fungi including either sensitive or drug-resistant strains from ATCC, as well as resistant clinical isolates from the culture collection of the Laboratory for Control of Hospital Infections (Sechenov University, Moscow, Russia). The minimum inhibitory concentrations (MICs) were determined by the microdilution method in a cation-adjusted Müller–Hinton medium for bacteria and in a liquid culture medium RPMI 1640 with L-glutamine without sodium bicarbonate for fungi in accordance with the requirements of the Institute of Clinical and Laboratory Standards (CLSI/NCCLS). […] As a rule, their activity against Gram-negative bacteria was usually not that high. […] For comparison, the antimicrobial activity of prototype 4 is shown. The antibacterial antibiotic levofloxacin and the antifungal amphotericin B were used as reference drugs (Table 1).
(§2) The synthesis of compounds and the scheme of their preparation and purification, as well as physicochemical characteristics, were described earlier. To evaluate the biological activity in vitro, the compounds were dissolved in DMSO at a concentration of 2.0–6.4 mg/mL, followed by preparation of two-fold dilutions in the same solvent, if necessary. The solutions were further diluted in an aqueous medium for the final concentration of DMSO not to exceed 1%, and the concentration of the compounds ranged from 64.0 to 0.13 μg/mL. To study compounds in vivo, solutions for intravenous administration in 5% glucose solution were prepared. Solutions were sterilized by filtration through 0.22 µm filters (Millipore, Burlington, MA, USA).
(§3) Strains of Gram-positive, Gram-negative bacteria and fungi including sensitive or drug-resistant strains from ATCC, as well as resistant clinical isolates from the culture collection of the Laboratory for Control of Hospital Infections (Sechenov University, Moscow, Russia), were used. Clinical isolates of Gram-positive bacteria Staphylococcus aureus 5 (MRSA), Staphylococcus aureus 10, Staphylococcus aureus 100KC (MRSA), Staphylococcus epidermidis 533, Staphylococcus haemoliticus 585 and Enterococcus faecium 569, as well as collection cultures of Gram-positive bacteria Staphylococcus aureus ATCC 700699, Staphylococcus aureus ATCC 25923, Staphylococcus aureus ATCC 3798 and collection cultures of Gram-negative bacteria Escherichia coli ATCC 25922, Klebsiella pneumoniae ATCC 13883, Proteus vulgaris ATCC 13315, Salmonella cholerasuis ATCC 14028, Pseudomonas aeruginosa ATCC 27853 and collection cultures of the yeast Candida albicans ATCC 14053 and the fungi Aspergillus niger ATCC 16404 were used. To grow the microorganisms, we used Trypticase Soy Agar (TSA, Sigma-Aldrich Co., Burlington, MA, USA). Trypticase Soy Agar, BBL, was used for cultivation of Staphylococcus spp. and E. coli. For cultivation of Enterococcus spp. and P. aeruginosa we used a ready-made dry medium Columbia Agar Base, BBL. The media were sterilized by autoclaving at 121 °C for 15 min. Yeast culture C. albicans was grown on Sabouraud agar (peptone—10 g, glucose—40 g, agar—20 g, distilled water—1 L, pH 6.0), and filamentous fungi A. niger was grown on potato–glucose agar (potatoes—200 g, glucose—20 g, agar—15 g, distilled water—1 L, pH 5.5–6.0).
(§4) To determine the antibacterial effect, a liquid Müller–Hinton medium (Becton, Dickinson and Company, Cockeysville, MD, USA) was used; to determine the effect of compounds on fungi we used RPMI 1640 medium with L-glutamine, without sodium bicarbonate, which was prepared from a dry medium (ICN Biomedicals Inc., Costa Mesa, CA, USA) by dilution in distilled water, subsequent buffering with 0.165 M of morpholinepropanesulfonic acid (MOPS, Acros Organics B.V.B.A., Morris Plains, NJ, USA) and adjusting the pH of the medium to 7.0 by adding 1 N of NaOH solution. […]
On the technique in general: Broth dilution looks for growth in wells or tubes with falling amounts of substance.

Series [1] deals with Staphylococcus aureus ATCC 3798. Kind of series: MIC by broth microdilution. Conditions: ATCC3798. Type of series: cell-based. As for the experimental part:
as §1, §2, §3, §4

In series [2] the test system is Staphylococcus aureus ATCC 700699. The experiment in a line: MIC by broth microdilution. Type of series: cell-based. The settings on record: ATCC700699. The protocol: as §1, §2, §3, §4
For the next series, the system named is Staphylococcus aureus 10. Kind of series: MIC by broth microdilution. Format: cell-based. As for the experimental part:
as §1, §2, §3, §4

For series [3], the system named is Staphylococcus aureus 100KC. Kind of series: MIC by broth microdilution. Format: cell-based. Conditions: Staphylococcus aureus 100KC (MRSA). As for the experimental part: as §1, §2, §3, §4
The subject of series [4] is Proteus vulgaris ATCC 13315. The experiment in a line: MIC by broth microdilution. Conditions: ATCC13315. Type of series: cell-based. The protocol:
as §1, §2, §3, §4

For series [5], the system named is Staphylococcus aureus ATCC 25923. Kind of series: MIC by broth microdilution. Type of series: cell-based. Conditions: ATCC25923. As for the experimental part:
as §1, §2, §3, §4

The subject of series [6] is Staphylococcus haemoliticus 585. The experiment in a line: MIC by broth microdilution. Type of series: cell-based. Conditions: Staphylococcus haemoliticus 585. The protocol: as §1, §2, §3, §4
Another series deals with Staphylococcus aureus 5. The experiment in a line: MIC by broth microdilution. Format: cell-based. The settings on record: Staphylococcus aureus 5 (MRSA). The protocol:
as §1, §2, §3, §4

Series [7] has as its system Staphylococcus epidermidis 533. Kind of series: MIC by broth microdilution. Type of series: cell-based. As for the experimental part:
as §1, §2, §3, §4

The test system of series [8] is Salmonella cholerasuis ATCC 14028. Kind of series: MIC by broth microdilution. Type of series: cell-based. The settings on record: ATCC14028. As for the experimental part: as §1, §2, §3, §4
For series [9], the system named is Pseudomonas aeruginosa ATCC 27853. Kind of series: MIC by broth microdilution. Format: cell-based. Conditions: ATCC27853. The protocol: as §1, §2, §3, §4
Series [10] relates to Escherichia coli ATCC 25922. Kind of series: MIC by broth microdilution. Conditions: ATCC25922. Type of series: cell-based. As for the experimental part:
as §1, §2, §3, §4

The test system of series [11] is Klebsiella pneumoniae ATCC 13883. Kind of series: MIC by broth microdilution. Format: cell-based. Conditions: ATCC13883. As for the experimental part:
as §1, §2, §3, §4

Series [12] is described as follows: Cytotoxic activity, MTT assay. Type of series: cell-based, human. The settings on record: human, HPF-hTERT. As for the experimental part: The cytotoxic activity of the compounds was evaluated on the healthy donor (postnatal) human fibroblasts immortalized by transfection of the hTERT gene of the catalytic component of telomerase (hereinafter HPF-hTERT) that were obtained from N.N. Blokhin Russian Cancer Research Center. HFC-hTERT cells were cultured in Dulbecco’s modified medium (DMEM) containing 2 mM of L-glutamine, 10% fetal calf serum, 100 U/mL of penicillin and 100 μg/mL of streptomycin. Incubation was performed in a humidified atmosphere of 5% CO2 at 37 °C. In the experiment, we used cells in the logarithmic growth phase. To study the cytotoxicity of compounds, 190 μL of cell suspension (~2 thousand cells per well) was added to the wells of 96-well plates and incubated for 16 h. On the day of the experiment, serial dilutions of the test compounds were prepared in DMSO (stock solution—10 mM in 100% DMSO). Further dilutions were conducted in a nutrient medium. The final concentrations of compounds in the experiment were in a concentration range from 0.0025 to 50 μM. The final concentration of DMSO was 1% or less. Each concentration was presented in 3 repetitions. […] The cells were incubated with the test compounds for 72 h. After the end of incubation, 20 μL of MTT solution in growth medium (5 mg/mL) was added to the wells. The cells were incubated for 2 h until a purple color developed, after which the culture medium was removed. DMSO was added to the wells, and the sediment was suspended. Optical density was measured with a Thermo Scientific Multiscan FC spectrophotometer at 570 nm. The values of optical density in wells without addition of test compounds (control) were taken as 100% cell survival. The percentage of survival of cells incubated with the test compounds was calculated by dividing the optical density in the corresponding well (average of 3 independent measurements) by the optical density in the control. The concentration of drugs causing 50% cell death (IC50) was evaluated and expressed in μg/mL.
(Formazan colour is commonly taken as a measure of viable cells.)

The test system of series [13] is Candida albicans ATCC 14053. Kind of series: MIC by broth microdilution (RPMI 1640). Format: cell-based. The settings on record: ATCC14053. As for the experimental part: as §1, §2, §3, §4
Series [14] relates to Aspergillus niger ATCC 16404. The experiment in a line: MIC by broth microdilution (RPMI 1640). Type of series: cell-based. Conditions: ATCC16404. The protocol: as §1, §2, §3, §4
The subject of series [15] is yeast (Candida albicans) and fungi (Aspergillus niger). The experiment in a line: Antifungal activity. Conditions: Candida albicans and Aspergillus niger. Format: cell-based. As for the experimental part:
as §1
(§5) The minimum inhibitory concentrations (MIC) for Gram-positive and Gram-negative bacteria were determined by two-fold serial microdilution method in a cation-adjusted Müller–Hinton medium for bacteria and in a liquid culture medium RPMI 1640 with L-glutamine without sodium bicarbonate for fungi in accordance with the requirements of the Institute of Clinical and Laboratory Standards (CLSI/NCCLS). The antibacterial antibiotic levofloxacin and the antifungal antibiotic amphotericin B from Sigma-Aldrich were used as reference drugs.

A further series concerns Gram-positive bacteria. Kind of series: MIC against Gram-positive bacteria. Format: cell-based. As for the experimental part: as §1, §5

Structures are written as SMILES. Values after ≈ are worked out from the molar mass of the structure shown.

The term MIC denotes the least concentration at which growth counts as inhibited. Read a low MIC as a more susceptible organism. One may read the IC50 as the concentration that gives 50% inhibition. Lower therefore signals inhibition by little substance. As to `CCCn1cc([C+](c2cn(CCC)c3ccccc23)c2cn(CCC)c3ccccc23)c2ccccc21.[Cl-]` [Compound 4, tris(1-propyl-1H-indol-3-yl) methylium chloride], the MIC in the series with Enterococcus faecium 569 worked out at 1 µg/mL; in [1], 0.25 µg/mL; in series [2] it was 0.25 µg/mL; against Staphylococcus aureus 10, 0.25 µg/mL; in series [3], 0.5 µg/mL; in series [4], 1 µg/mL. For the same compound, the minimal inhibitory concentration (MIC) in series [5] is 0.25 µg/mL; in [6], 0.5 µg/mL; in the series on Staphylococcus aureus 5, 0.5 µg/mL; in [7] it was 0.13 µg/mL; in [8], 32 µg/mL; in [9], 64 µg/mL. Besides, the MIC is 32 µg/mL in series [10]; greater than 64 µg/mL in series [11]; 1 µg/mL in [13]; 2 µg/mL in series [14]; 2 µg/mL in series [15]; 0.25 µg/mL against Gram-positive bacteria. Besides, half-maximal inhibition in series [12] (IC50 at 72 h) required 0.07 µg/mL.
With `C[C@@H]1[C@H](O)[C@@H](C)/C=C/C=C/C=C/C=C/C=C/C=C/C=C/[C@H](O[C@@H]2O[C@H](C)[C@@H](O)[C@H](N)[C@@H]2O)C[C@@H]2O[C@](O)(C[C@@H](O)C[C@@H](O)[C@H](O)CC[C@@H](O)C[C@@H](O)CC(=O)O[C@H]1C)C[C@H](O)[C@H]2C(=O)O` [Amphotericin B, amphotericin B, reference compound], in [12], the midpoint of inhibition, the IC50 at 72 h, lay at 0.7 µg/mL (≈ 0.758 µM). Further, the minimum inhibitory concentration (MIC) in series [13] and in series [14] was 1 µg/mL (≈ 1.08 µM) throughout.
